What all share (experiment): relative viability (nuclei count vs DMSO), 5 days (fraction); higher = more cells survive
Compound in the assay “VX-702 + Crizotinib”: NC(=O)c1ccc(N(C(N)=O)c2c(F)cccc2F)nc1-c1ccc(F)cc1F [VX-702] + C[C@@H](Oc1cc(-c2cnn(C3CCNCC3)c2)cnc1N)c1c(Cl)ccc(F)c1Cl [Crizotinib] (partner 1 µM)
An outline of the steps: (§1)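 Nuclei were stained with Hoechst during a one-step fixation (final 0.05% Triton X-100, 1% formaldehyde, 1 ug/ml Hoechst) carried out 5 days after dosing, then counted on 4× images. The cells, lung cancer lines in 1536-well plates, had been dosed by pin tool the day after seeding with one drug alone or a fixed anchor-drug dose plus five library-drug doses (not always all listed) in √10 steps. Relative viability is the nuclei count in treated wells divided by that in vehicle wells, and each value is the median of duplicate plates.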

Compound in the assay “Dabrafenib + Dasatinib”: CC(C)(C)c1nc(-c2cccc(NS(=O)(=O)c3c(F)cccc3F)c2F)c(-c2ccnc(N)n2)s1 [Dabrafenib] + Cc1nc(Nc2ncc(C(=O)Nc3c(C)cccc3Cl)s2)cc(N2CCN(CCO)CC2)n1 [Dasatinib] (partner 0.075 µM)
An outline of the steps: as §1

Compound in the assay “Dabrafenib + Lapatinib”: CC(C)(C)c1nc(-c2cccc(NS(=O)(=O)c3c(F)cccc3F)c2F)c(-c2ccnc(N)n2)s1 [Dabrafenib] + CS(=O)(=O)CCNCc1ccc(-c2ccc3ncnc(Nc4ccc(OCc5cccc(F)c5)c(Cl)c4)c3c2)o1 [Lapatinib] (partner 2 µM)
The gist of the method:
as §1

Compound in the assay “VX-702 + Olaparib”: NC(=O)c1ccc(N(C(N)=O)c2c(F)cccc2F)nc1-c1ccc(F)cc1F [VX-702] + O=C(c1cc(Cc2n[nH]c(=O)c3ccccc23)ccc1F)N1CCN(C(=O)C2CC2)CC1 [Olaparib] (partner 8 µM)
The gist of the method: as §1

Take PC-14: the relative viability in the assay with VX-702 + Crizotinib (first compound 0.02 µM) turned out to be 0.874; with VX-702 + Crizotinib (first compound 0.2 µM), 0.86; with VX-702 + Crizotinib (first compound 0.6325 µM), 0.818; with VX-702 + Crizotinib (first compound 2 µM), 1.02; with Dabrafenib + Dasatinib (first compound 0.003 µM), 0.276; in the assay with Dabrafenib + Dasatinib (first compound 0.009487 µM), 0.297. For the same cell line, the relative viability with Dabrafenib + Dasatinib (first compound 0.03 µM) stood at 0.271; with Dabrafenib + Dasatinib (first compound 0.09487 µM) it was 0.251; with Dabrafenib + Dasatinib (first compound 0.3 µM), 0.281; with Dabrafenib + Lapatinib (first compound 0.003 µM), 0.282; in the assay with Dabrafenib + Lapatinib (first compound 0.009487 µM) it was 0.418; in the assay with Dabrafenib + Lapatinib (first compound 0.03 µM), 0.363. For the same cell line, the relative viability amounted to 0.317 with Dabrafenib + Lapatinib (first compound 0.09487 µM); 0.364 with Dabrafenib + Lapatinib (first compound 0.3 µM); 0.315 in the assay with VX-702 + Olaparib (first compound 0.02 µM); 0.329 in the assay with VX-702 + Olaparib (first compound 0.2 µM); 0.338 with VX-702 + Olaparib (first compound 0.6325 µM); 0.282 with VX-702 + Olaparib (first compound 2 µM).
For the cell line RERF-LC-KJ, the relative viability with VX-702 + Crizotinib (first compound 0.02 µM) turned out to be 0.876; in the assay with VX-702 + Crizotinib (first compound 0.2 µM), 0.849; with VX-702 + Crizotinib (first compound 0.6325 µM), 0.825; in the assay with VX-702 + Crizotinib (first compound 2 µM), 0.875; with Dabrafenib + Dasatinib (first compound 0.003 µM) it was 0.73; with Dabrafenib + Dasatinib (first compound 0.009487 µM) it was 0.919. The relative viability with Dabrafenib + Dasatinib (first compound 0.03 µM) amounted to 0.92; with Dabrafenib + Dasatinib (first compound 0.09487 µM), 0.799; with Dabrafenib + Dasatinib (first compound 0.3 µM), 0.989; in the assay with Dabrafenib + Lapatinib (first compound 0.003 µM) it was 0.851; in the assay with Dabrafenib + Lapatinib (first compound 0.009487 µM) it was 0.9; with Dabrafenib + Lapatinib (first compound 0.03 µM), 0.893. The relative viability turned out to be 0.907 with Dabrafenib + Lapatinib (first compound 0.09487 µM); 1.04 with Dabrafenib + Lapatinib (first compound 0.3 µM); 1.01 with VX-702 + Olaparib (first compound 0.02 µM); 0.854 in the assay with VX-702 + Olaparib (first compound 0.2 µM); 0.921 in the assay with VX-702 + Olaparib (first compound 0.6325 µM); 0.901 in the assay with VX-702 + Olaparib (first compound 2 µM).
Take SK-LU-1: the relative viability was 0.96 with VX-702 + Crizotinib (first compound 0.02 µM); 0.751 with VX-702 + Crizotinib (first compound 0.2 µM); 0.934 with VX-702 + Crizotinib (first compound 0.6325 µM); 0.963 with VX-702 + Crizotinib (first compound 2 µM); 0.185 in the assay with Dabrafenib + Dasatinib (first compound 0.009487 µM); 0.193 with Dabrafenib + Dasatinib (first compound 0.03 µM). For the same cell line, the relative viability worked out at 0.173 with Dabrafenib + Dasatinib (first compound 0.09487 µM); 0.188 with Dabrafenib + Dasatinib (first compound 0.3 µM); 0.804 with Dabrafenib + Lapatinib (first compound 0.009487 µM); 0.653 with Dabrafenib + Lapatinib (first compound 0.03 µM); 0.664 in the assay with Dabrafenib + Lapatinib (first compound 0.09487 µM); 0.719 with Dabrafenib + Lapatinib (first compound 0.3 µM). Also, the relative viability in the assay with VX-702 + Olaparib (first compound 0.02 µM) came to 0.504; with VX-702 + Olaparib (first compound 0.2 µM), 0.435; in the assay with VX-702 + Olaparib (first compound 0.6325 µM) it was 0.526; with VX-702 + Olaparib (first compound 2 µM), 0.567.
Regarding SK-MES-1, the relative viability with VX-702 + Crizotinib (first compound 0.02 µM) was found to be 0.989; in the assay with VX-702 + Crizotinib (first compound 0.2 µM), 0.94; in the assay with VX-702 + Crizotinib (first compound 0.6325 µM) it was 0.986; in the assay with VX-702 + Crizotinib (first compound 2 µM) it was 1.09; in the assay with Dabrafenib + Dasatinib (first compound 0.003 µM), 0.323; in the assay with Dabrafenib + Dasatinib (first compound 0.009487 µM), 0.412. Further, the relative viability was 0.417 with Dabrafenib + Dasatinib (first compound 0.03 µM); 0.317 with Dabrafenib + Dasatinib (first compound 0.09487 µM); 0.289 in the assay with Dabrafenib + Dasatinib (first compound 0.3 µM); 0.418 with Dabrafenib + Lapatinib (first compound 0.003 µM); 0.546 with Dabrafenib + Lapatinib (first compound 0.009487 µM); 0.525 with Dabrafenib + Lapatinib (first compound 0.03 µM). For the same cell line, the relative viability amounted to 0.506 in the assay with Dabrafenib + Lapatinib (first compound 0.09487 µM); 0.598 in the assay with Dabrafenib + Lapatinib (first compound 0.3 µM); 0.679 in the assay with VX-702 + Olaparib (first compound 0.02 µM); 0.681 in the assay with VX-702 + Olaparib (first compound 0.2 µM); 0.622 with VX-702 + Olaparib (first compound 0.6325 µM); 0.696 with VX-702 + Olaparib (first compound 2 µM).
In the case of SW 1573, the relative viability is 0.8 with VX-702 + Crizotinib (first compound 0.02 µM); 0.721 in the assay with VX-702 + Crizotinib (first compound 0.2 µM); 0.773 with VX-702 + Crizotinib (first compound 0.6325 µM); 0.784 with VX-702 + Crizotinib (first compound 2 µM); 0.263 with Dabrafenib + Dasatinib (first compound 0.003 µM); 0.557 in the assay with Dabrafenib + Dasatinib (first compound 0.009487 µM). In addition, the relative viability turned out to be 0.457 with Dabrafenib + Dasatinib (first compound 0.03 µM); 0.279 with Dabrafenib + Dasatinib (first compound 0.09487 µM); 0.379 with Dabrafenib + Dasatinib (first compound 0.3 µM); 0.883 with Dabrafenib + Lapatinib (first compound 0.003 µM); 0.864 with Dabrafenib + Lapatinib (first compound 0.009487 µM); 1.17 in the assay with Dabrafenib + Lapatinib (first compound 0.03 µM). Also, the relative viability was 1.1 in the assay with Dabrafenib + Lapatinib (first compound 0.09487 µM); 1.11 in the assay with Dabrafenib + Lapatinib (first compound 0.3 µM); 0.495 with VX-702 + Olaparib (first compound 0.02 µM); 0.445 in the assay with VX-702 + Olaparib (first compound 0.2 µM); 0.438 in the assay with VX-702 + Olaparib (first compound 0.6325 µM); 0.448 with VX-702 + Olaparib (first compound 2 µM).
Take UMC-11: the relative viability turned out to be 0.578 in the assay with VX-702 + Crizotinib (first compound 0.02 µM); 0.596 in the assay with VX-702 + Crizotinib (first compound 0.2 µM); 0.512 with VX-702 + Crizotinib (first compound 0.6325 µM); 0.692 in the assay with VX-702 + Crizotinib (first compound 2 µM); 0.43 with Dabrafenib + Dasatinib (first compound 0.003 µM); 0.462 in the assay with Dabrafenib + Dasatinib (first compound 0.009487 µM). Further, the relative viability with Dabrafenib + Dasatinib (first compound 0.03 µM) came out at 0.41; in the assay with Dabrafenib + Dasatinib (first compound 0.09487 µM), 0.446; with Dabrafenib + Dasatinib (first compound 0.3 µM), 0.501; in the assay with Dabrafenib + Lapatinib (first compound 0.003 µM) it was 1.01; with Dabrafenib + Lapatinib (first compound 0.009487 µM), 1.08; with Dabrafenib + Lapatinib (first compound 0.03 µM) it was 0.812. Further, the relative viability was found to be 1.08 with Dabrafenib + Lapatinib (first compound 0.09487 µM); 0.959 with Dabrafenib + Lapatinib (first compound 0.3 µM); 0.346 in the assay with VX-702 + Olaparib (first compound 0.02 µM); 0.352 in the assay with VX-702 + Olaparib (first compound 0.2 µM); 0.368 with VX-702 + Olaparib (first compound 0.6325 µM); 0.269 with VX-702 + Olaparib (first compound 2 µM).

Source of the values: the supplement of paper PMC10307832.
